The nature of the data set: gradient 5% acetonitrile 3 min, to 50% in 2 min, to 85% in 15 min, held 3 min, 100 µL/min. The following applies: column: Zorbax Extend-C18 2.1 x 50 mm; eluents: water / acetonitrile, 0.1% formic acid. The procedure, abridged: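 Data were gathered over 3 months by HPLC coupled to a quadrupole time-of-flight mass spectrometer, operated in positive and negative ionization mode. Mixtures of ~100 pure standards ran on a Zorbax Extend-C18 column (2.1 × 50 mm, 1.8 μm) at 100 μL/min, with water and acetonitrile each containing 0.1% formic acid and dead and dwell volumes of 40 μL and 900 μL. Retention time was read from adduct peaks picked by computer and checked manually.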
On to `CCCNC(=O)C1CCN(c2ccc(SCC(=O)Nc3ccc(F)c(F)c3)nn2)CC1`, for which the RP-LC retention time was found to be 665 s.

Turning to `COc1ccccc1N1CCN(Cc2nc(-c3ccc(N4CCCC(C)C4)nc3)no2)CC1` (stereo not drawn), the RP-LC retention time turned out to be 848 s.

`Cc1ccc(CNC(=O)C2(C)CCN(S(=O)(=O)c3ccc(Br)s3)CC2)cc1` had an RP-LC retention time of 1050 s.

For `Cn1cc(C2=CCN(S(=O)(=O)c3ccc(F)c(Cl)c3)CC2)c2cccnc21`, the RP-LC retention time turned out to be 1050 s.

`CCCN(CC1CCOC1)C(=O)Nc1cccc(F)c1` (stereo not drawn) returned an RP-LC retention time of 684 s.

Compound `Cc1ccc(Nc2c(-c3ccc(N(C)C)cc3)nc3cnccn23)cc1Br` displayed an RP-LC retention time of 990 s.

On to `Cc1cc(=O)n(Cc2ccc(OC(F)(F)F)cc2)c(Nc2ccc(F)c(F)c2)n1`, for which the RP-LC retention time is 1300 s.

`NC(=O)Cc1csc(NC(=O)c2coc(NC(=O)c3ccccc3)n2)n1` yielded an RP-LC retention time of 586 s.

In the case of `COc1cccc2c1OC1(C)CC2C(S(=O)(=O)c2ccc(C)c(C)c2)C(=O)N1C` (stereo not drawn), the RP-LC retention time was 931 s.

For `O=C(O)c1cc(-c2c[nH]c3ccccc23)nc2ccccc12`, the RP-LC retention time was 624 s.

Turning to `CC(=O)N1C[C@@H]2CCCN3CCC[C@@H]([C@H]23)[C@H]1CCCC(=O)NCCCN(C)C1CCCCC1`, the RP-LC retention time amounted to 547 s.

In turn, `Cc1ccccc1-c1noc(C2CCCN2S(=O)(=O)c2cccc(Cl)c2C)n1` (stereo not drawn) had an RP-LC retention time of 1280 s.

Consider `O=S(=O)(Nc1ccccc1)c1cccc(-c2nc(-c3ccccc3)no2)c1`, for which the RP-LC retention time was 1210 s.

Take `CCN1C(=O)C2(CCN(S(=O)(=O)c3cc(F)ccc3OC)CC2)c2ccccc21`: the RP-LC retention time worked out at 1030 s.

As to `COc1cccc(NC(=O)CN2CCc3[nH]c4c(OC)ccc(Cl)c4c(=O)c3C2)c1`, the RP-LC retention time worked out at 610 s.

The compound `CC(=O)N1CCc2[nH]c3ccc(C(=O)NC4CCN(Cc5ccccc5)CC4)cc3c2C1` registered an RP-LC retention time of 585 s.

In turn, `CCCSc1nnc(NC(=O)CCc2ccc(C)o2)s1` came in with an RP-LC retention time of 892 s.

`CC1(C(=O)NCc2ccc(F)cc2)CCCN(C(=O)NC2CCCCC2)C1` (stereo not drawn): the RP-LC retention time was 895 s.

Turning to `Cc1cccc(Cn2nc3n(Cc4ccc(F)cc4)c(=O)c4nn(C)cc4n3c2=O)c1`, the RP-LC retention time is 940 s.

Compound `Cc1csc(-c2cc(S(=O)(=O)Nc3ccc(Cl)cc3)cn2CC(=O)N2CCCC2)n1` registered an RP-LC retention time of 947 s.

As to `Cc1ccc(C2=NC(c3ccc([N+](=O)[O-])cc3)SC(N3CCOCC3)=N2)cc1` (stereo not drawn), the RP-LC retention time worked out at 642 s.

Compound `CCOCCCNC(=O)C1CCN(c2nccnc2Oc2ccccc2C)CC1` registered an RP-LC retention time of 841 s.

For the compound `CCOc1ccccc1-c1csc(NC(=O)c2sc(COc3cc(C)ccc3C)nc2C)n1`, the RP-LC retention time stood at 1030 s.

For the compound `Cc1ccc(C)c(NC(=O)Cn2cnc(-c3noc(-c4ccncc4)n3)c2)c1`, the RP-LC retention time was determined as 687 s.

Take `Cc1nc(N2CCOCC2)c2c(C(=O)Nc3ccc(Cl)cc3)c(C)oc2n1`: the RP-LC retention time was 883 s.

`Cc1cc(C)cc(-c2nc(-c3ccc4c(c3)oc(=O)n4C(C)C)no2)c1` registered an RP-LC retention time of 1140 s.

Consider `Cn1c(=O)c2nc(S(=O)(=O)CCC(=O)Nc3ccc(Cl)cc3F)n(C)c2n(C)c1=O`, for which the RP-LC retention time was determined as 781 s.

As to `CC(C)(Oc1ccc(Cl)cc1)C(=O)NCCS(=O)(=O)N1CCc2ccccc2C1`, the RP-LC retention time is 1000 s.

Compound `O=c1c2ccccc2c(-c2nc(-c3ccncc3)no2)cn1-c1cccc(F)c1` had an RP-LC retention time of 1050 s.

Compound `CCOC(=O)c1cnc(N2CCN(Cc3ccccc3)CC2)c2ccccc12` had an RP-LC retention time of 755 s.

For `CN(C)CCc1c[nH]c2ccc(CS(=O)(=O)N3CCCC3)cc12`, the RP-LC retention time worked out at 629 s.

Compound `CC(=O)c1ccc(NS(=O)(=O)c2ccccc2[N+](=O)[O-])cc1` came in with an RP-LC retention time of 729 s.

Compound `CCc1ccc(NC(=O)C2CCN(S(=O)(=O)c3cn(CC)cn3)CC2)cc1` came in with an RP-LC retention time of 794 s.

Compound `CN(C)C[C@@H]1CN(Cc2ccccc2)C[C@H]1NS(=O)(=O)c1ccc(C#N)cc1` gave an RP-LC retention time of 562 s.

Compound `O=C(c1ccc(F)c(F)c1)N1CCN(c2cc(-c3cccnc3)[nH]n2)CC1` showed an RP-LC retention time of 615 s.

`O=C(Nc1ccccc1)Nc1ccccc1` yielded an RP-LC retention time of 767 s.

For the compound `CCCC(=O)Nc1nc2ccc(CCC(=O)N3CCN(c4ccccn4)CC3)cc2s1`, the RP-LC retention time turned out to be 603 s.

On to `CCCC(=O)Nc1ccc2c(c1)CN(C(=O)c1ccc(F)c(F)c1)C(C(=O)N(C)C)C2` (stereo not drawn), for which the RP-LC retention time came out at 736 s.

In turn, `CCn1ccc2sc(C)c(C(=O)NCC(C)C)c2c1=O` gave an RP-LC retention time of 747 s.

Take `CN(C)S(=O)(=O)N1CCOc2ccc(CCC(=O)NCC3CC3)cc2C1`: the RP-LC retention time came out at 767 s.

`COc1ccc(S(=O)(=O)N2CCc3c(c(-c4nnc(-c5ccccc5F)o4)nn3C)C2)cc1`: the RP-LC retention time is 882 s.

On to `Cc1nn(C)c2nc(OC(C)C(=O)NCc3ccc(F)cc3)cc(C(F)(F)F)c12` (stereo not drawn), for which the RP-LC retention time came out at 960 s.

In turn, `CCOc1ccccc1N1CCN(C(=O)C2CCCN(c3nccc4sc(C)cc34)C2)CC1` (stereo not drawn) yielded an RP-LC retention time of 713 s.

For `CCc1nc(-c2csc(S(=O)(=O)N3CCC(C(=O)N4CCCCCC4)CC3)c2)no1`, the RP-LC retention time amounted to 955 s.

On to `CS(=O)(=O)N1CCCN(C(=O)Nc2ccccc2)CCNC(=O)CC1c1ccccc1` (stereo not drawn), for which the RP-LC retention time was found to be 698 s.

`CCOC(=O)c1cn(CC(=O)Nc2ccc(Br)cc2)c2nc(C)ccc2c1=O`: the RP-LC retention time is 821 s.

On to `COC[C@@H]1CN(Cc2ccccn2)C[C@H]1c1nc(C2CC2)no1`, for which the RP-LC retention time stood at 602 s.

Compound `O=C(CCCSc1ccc(NC(=O)c2cccs2)nn1)Nc1cnc2ccccc2c1` had an RP-LC retention time of 706 s.

Compound `CCNC(=O)N1CCc2c([nH]c3ccc(Cl)cc23)C12C(=O)N(C)c1ccccc12` (stereo not drawn) yielded an RP-LC retention time of 822 s.

As for `Cc1noc2nc(C)n(CC(=O)Nc3ccc(F)c(F)c3)c(=O)c12`, the RP-LC retention time came out at 790 s.

`CCOc1cc(-c2ccccc2)nc2ccc(NS(=O)(=O)c3ccc(NC(C)=O)cc3)cc12`: the RP-LC retention time stood at 669 s.

Consider `O=C1C(=O)N(C2CCN(S(=O)(=O)c3ccc(F)c(F)c3)CC2)CCN1Cc1ccccc1`, for which the RP-LC retention time worked out at 827 s.

With `COCC(=O)N1CCCN(C2=NS(=O)(=O)C(c3ccc(F)cc3)=C2C)CC1`, the RP-LC retention time is 677 s.

As to `CSc1n[nH]c(-c2cccs2)n1`, the RP-LC retention time came out at 714 s.

For the compound `CCOc1ccc(NS(=O)(=O)c2ccc3c(c2)CCCC(=O)N3)cc1`, the RP-LC retention time is 709 s.

In the case of `COc1ccc(OC)c(S(=O)(=O)N(C)C)c1`, the RP-LC retention time came to 702 s.

In turn, `Cc1ccc(/C=C/c2nc(-c3cccc(-c4ccnn4C)c3)no2)cc1` came in with an RP-LC retention time of 1270 s.

On to `Cc1cccc(-c2ncccc2CNS(=O)(=O)c2cccs2)c1`, for which the RP-LC retention time was determined as 677 s.

In turn, `CCCNC(=O)C1CCCN(c2ccc(SCC(=O)Nc3ccc(C)cc3)nn2)C1` (stereo not drawn) registered an RP-LC retention time of 686 s.

`O=C1CCc2cc(NS(=O)(=O)Cc3ccccc3Cl)ccc2N1` showed an RP-LC retention time of 783 s.

`Cc1noc(-c2nn(C)c3c2CN(C(=O)Cc2ccc(Cl)cc2)CC3)n1` had an RP-LC retention time of 762 s.

For `O=C(c1nnc(-c2ccc(S(=O)(=O)N3CCOCC3)cc2)o1)N1CCC2(CC1)OCCO2`, the RP-LC retention time turned out to be 730 s.

`O=C1CCCc2cc(S(=O)(=O)N3CCC(C(=O)N4CCc5ccccc54)CC3)ccc2N1`: the RP-LC retention time is 802 s.

`CCc1ccc(NC(=O)Cc2nc(C)c(C(=O)NCc3ccc(F)cc3)s2)cc1`: the RP-LC retention time turned out to be 946 s.

Compound `CC1CCN(C(=O)C2c3ccccc3CCN2CC(=O)Nc2ccc(F)cc2Cl)CC1` (stereo not drawn) showed an RP-LC retention time of 936 s.

The compound `COc1ccc(C)cc1S(=O)(=O)N1CCN(Cc2ccc3c(c2)OCO3)CC1` displayed an RP-LC retention time of 609 s.

With `Cc1ccc(C)c(CNC(=O)c2nnc(-c3ccc(S(=O)(=O)N(C)C)cc3)o2)c1`, the RP-LC retention time was found to be 950 s.

In the case of `CSc1ccc(CNC(=O)C2CCN(c3cncnc3N3CCOCC3)CC2)cc1`, the RP-LC retention time is 637 s.

For `COc1cccc(NC(=O)c2[nH]c3cc(C)sc3c2CN2CCOCC2)c1`, the RP-LC retention time was determined as 685 s.

Compound `COc1cc(OC)c(NC(=O)Cn2c(N(C)Cc3ccccc3)nc(C)cc2=O)cc1Cl` returned an RP-LC retention time of 818 s.

Consider `Cc1cccc(CN2CC=C(C(=O)N3CCN(c4ccccc4C)CC3)CC2)c1`, for which the RP-LC retention time turned out to be 726 s.

For the compound `CNC(=O)N1CCCC(c2cccc(C(=O)NCc3ccc(SC)cc3)c2)C1` (stereo not drawn), the RP-LC retention time is 779 s.

Take `O=C1CC(NS(=O)(=O)c2ccc(Br)s2)CN1` (stereo not drawn): the RP-LC retention time was 630 s.

As for `CN(Cc1cc(Br)cc(Br)c1N)C1CCCCC1`, the RP-LC retention time came to 832 s.

For the compound `O=C(NCCCN1CCOCC1)c1cc(-c2ccccn2)nc2ccccc12`, the RP-LC retention time stood at 592 s.

Consider `COc1cc(OC)c(NC(=O)CN2CCC(C(=O)N3CC(C)CC(C)C3)CC2)cc1Cl` (stereo not drawn), for which the RP-LC retention time was 730 s.

On to `O=C(C1CC(=O)N(c2n[nH]c3cccc(F)c23)C1)N1CCN(c2ccccn2)CC1` (stereo not drawn), for which the RP-LC retention time is 582 s.

The compound `Cc1ccc(C)c(S(=O)(=O)Nc2cnc(N3CCNCC3)c(C(=O)NC3CCCC3)c2)c1` registered an RP-LC retention time of 621 s.

The values are drawn from the METLIN SMRT retention time set (Domingo-Almenara et al. 2019).
